Reference: patent US20250326748A1, “COMPOUNDS AND METHODS FOR MODULATING SPLICING” (REMIX THERAPEUTICS INC., priority 2022, published 2025)
Where two headings read alike, the source gives them in different places.

Tests used:
K562 cells = assay: Cell viability, Cell Titer Glo 2.0 assay, K562; conditions: 72 hours
Target C mRNA = assay: Splicing RT-qPCR panel, Target C canonical junction (CJ) mRNA; assay type: cell-based, human; conditions: Homo sapiens, read-out: Target C CJ (decrease in CJ mRNA levels, IC50)
Protocol: (§1) Compounds described herein were used to modulate RNA transcript abundance in cells. The expression of a target mRNA was measured by detecting the formation of an exon-exon junction in the canonical transcript (CJ). A compound mediated exon-inclusion event was detected by observing an increase in formation of a new junction with an alternative exon (AJ). Real-time qPCR assays were used to detect these splicing switches and interrogate the potency of various compounds towards different target genes. A high-throughput real time quantitative PCR (RT-qPCR) assay was developed to measure these two isoforms of the mRNA (CJ and AJ) for exemplary genes, such as HTT, SMN2, and MYB, together with a control housekeeping gene, GAPDH or GUSB or PPIA, used for normalization. Briefly, the A673 or K562 cell line was treated with various compounds described herein (e.g., compounds of Formula (D). After treatment, the levels of the HTT, MYB, or SMN2 mRNA targets were determined from each sample of cell lysate by cDNA synthesis followed by qPCR.
(§2) The A673 cell line was cultured in DMEM with 10% FBS. Cells were diluted with full growth media and plated in a 96-well plate (15,000 cells in 100 ul media per well). The plate was incubated at 37° C. with 5% CO2 for 24 hours to allow cells to adhere. An 11-point 3-fold serial dilution of the compounds was made in DMSO then diluted in media in an intermediate plate. Compounds were transferred from the intermediate plate to the cell plate with the top dose at a final concentration of 10 uM in the well. Final DMSO concentration was kept at or below 0.25%. The cell plate was returned to the incubator at 37° C. with 5% CO2 for an additional 24 hours.
(§3) The K562 cell line was cultured in IMDM with 10% FBS. For K562, cells were diluted with full growth media and plated in either a 96-well plate (50,000 cells in 50 uL media per well) or a 384-well plate (8,000-40,000 cells in 45 uL media per well). An 11-point 3-fold serial dilution of the compounds were made in DMSO then diluted in media in an intermediate plate. Compound was transferred from the intermediate plate to the cell plate with the top dose at a final concentration of 10 uM in the well. Final DMSO concentration was kept at or below 0.25%. Final volume was 100 uL for 96-well plate and 50 uL for 384-well plate. The cell plate was then placed in an incubator at 37° C. with 5% CO2 for 24 hours.
(§4) The cells were then gently washed with 50 uL-100 uL cold PBS before proceeding to addition of lysis buffer. 30 uL-50 μL of room temperature lysis buffer with DNAse I (and optionally RNAsin) was added to each well. Cells were shaken/mixed thoroughly at room temperature for 5-10 minutes for lysis to take place and then 3 uL-5 μL of room temperature stop solution was added and wells were shaken/mixed again. After 2-5 minutes, the cell lysate plate was transferred to ice for RT-qPCR reaction setup. The lysates could also be frozen at −80° C. for later use.
In some cases, a direct lysis buffer was used. An appropriate volume of 3× lysis buffer (10 mM Tris, 150 mM NaCl, 1.5%-2.5% Igepal and 0.1-1 U/uL RNAsin, pH 7.4) was directly added to either K562 or A673 cells in media and mixed by pipetting 3 times. The plates were then incubated at room temperature with shaking/rocking for 20-50 minutes to allow for lysis to take place. After this time, the cell lysate plate was transferred to ice to set up for the RT-qPCR reactions. The lysates could also be frozen at −80° C. for later use.
To set up 10 uL RT-qPCR reactions, cell lysates were transferred to 384-well qPCR plates containing the master mix according to the table below. The plates were sealed, gently vortexed, and spun down before the run. The volumes were adjusted accordingly in some instances where the reaction was carried in 20 μL. The table below summarizes the components of the RT-qPCR reactions:
The RT-qPCR reaction was performed using a QuantStudio (ThermoFisher) under the following fast cycling conditions. […]

MYB mRNA = assay: Splicing RT-qPCR assay, MYB canonical (CJ) and alternative (AJ) junction mRNA; assay type: cell-based, human; conditions: Homo sapiens; for IC50: canonical junction mRNA; for AC50: alternative junction mRNA, read-out: MYB AJ (AC50, increase in AJ mRNA)
Protocol: as §1
(§5) • Cells-to-CT 1-step kit: ThermoFisher A25602, Cells-to-CT lysis reagent: ThermoFisher 4391851C, TaqMan™ Fast Virus 1-Step Master Mix: ThermoFisher 4444436 • GAPDH: VIC-PL, ThermoFisher 4326317E (Assay: Hs99999905_m1)—used for K562/suspension cell lines • GUSB: VIC-PL, ThermoFisher 4326320E (Assay: Hs99999908_m1)—used for K562/suspension cell lines • PPIA: VIC-PL, ThermoFisher 4326316E (Assay: Hs99999904_m1)—used for A673/adherent cell lines
as §2, §3, §4
(§6) In some cases, a direct lysis buffer was used. An appropriate volume of 3× lysis buffer (10 mM Tris, 150 mM NaCl, 1.5%-2.5% Igepal and 0.1-1 U/uL RNAsin, pH 7.4) was directly added to either K562 or A673 cells in media and mixed by pipetting 3 times. The plates were then incubated at room temperature with shaking/rocking for 20-50 minutes to allow for lysis to take place. After this time, the cell lysate plate was transferred to ice to set up for the RT-qPCR reactions. The lysates could also be frozen at −80° C. for later use. […]

HTT mRNA = assay: Splicing RT-qPCR assay, HTT canonical (CJ) and alternative (AJ) junction mRNA; assay type: cell-based, human; conditions: Homo sapiens; for IC50: canonical junction mRNA; for AC50: alternative junction mRNA, read-out: HTT AJ (AC50, increase in AJ mRNA)
Protocol: as §1, §5, §2, §3, §4, §6

[1] = qPCR panel, read-out: MYB CJ (decrease in CJ mRNA levels, IC50)
[2] = RT-qPCR, A673 or K562 cells, 24 hours treatment
[3] = RT-qPCR, A673 or K562 cells, 24 hours treatment, read-out: MYB CJ (IC50, decrease in CJ mRNA)
[4] = 24 h, RT-qPCR, A673 or K562 cells, 24 hours treatment, read-out: HTT CJ (IC50, decrease in CJ mRNA)
[5] = qPCR panel, read-out: HTT CJ (decrease in CJ mRNA levels, IC50)

SMILES | Effect on Cell Viability, K562 (K562 cells) | IC50 (Target C mRNA) [nM] | IC50 (MYB mRNA; [1]) [nM] | AC50 (MYB mRNA; [2]) [nM] | IC50 (MYB mRNA; [3]) [nM] | IC50 (HTT mRNA; [4]) [nM] | IC50 (HTT mRNA; [5]) [nM] | AC50 (HTT mRNA; [2]) [nM]
Cc1c(O)c(-c2cc(Cl)c3cc(N4C[C@H](C)N[C@@H](C)C4)cnc3n2)cc2cn(C)nc12 [Compound 232, 5-{4-chloro-6-[(3S,5S)-3,5-dimethylpiperazin-1-yl]-1,8-naphthyridin-2-yl}-2,7-dimethylindazol-6-ol] | A (<100 nM) | 100 to 1000 | < 100 | < 100 | < 100 | < 100 | < 100 | < 100
Cc1c(O)c(-c2cc(C3CC3)c3cc(N4C[C@@H](C)N[C@@H](C)C4)cnc3n2)cc2cn(C)nc12 [Compound 374, 5-{4-cyclopropyl-6-[(3R,5S)-3,5-dimethylpiperazin-1-yl]-1,8-naphthyridin-2-yl}-2,7-dimethylindazol-6-ol] | C (1000-9999 nM) | > 10000 | 100 to 1000 | 100 to 1000 | 100 to 1000 | 1000 to 10000 | 1000 to 10000 | 1000 to 10000
Cc1c(O)c(-c2cc(Cl)c3cc(N4C[C@@H]5CCCN(C)[C@@H]5C4)cnc3n2)cc2cn(C)nc12 [Compound 375] | B (100-1000 nM) | > 10000 | 100 to 1000 | 100 to 1000 | 100 to 1000 | > 10000 | > 10000 | > 10000
CN1CCC[C@H]2CN(c3cnc4nc(-c5cc(F)c6nn(C)cc6c5)cc(Cl)c4c3)C[C@H]21 [Compound 376, 6-[(4aS,7aS)-1-methyl-hexahydro-2H-pyrrolo[3,4-b]pyridin-6-yl]-4-chloro-2-(7-fluoro-2-methylindazol-5-yl)-1,8-naphthyridine] | C (1000-9999 nM) | > 10000 | 1000 to 10000 | 1000 to 10000 | 1000 to 10000 | > 10000 | > 10000 | > 10000
Cc1c(O)c(-c2cc(C3CC3)c3cc(N4C[C@H](C)N[C@@H](C)C4)cnc3n2)cc2cn(C)nc12 [Compound 377, 5-{4-cyclopropyl-6-[(3S,5S)-3,5-dimethylpiperazin-1-yl]-1,8-naphthyridin-2-yl}-2,7-dimethylindazol-6-ol] | B (100-1000 nM) | 1000 to 10000 | < 100 | < 100 | < 100 | 100 to 1000 | 100 to 1000 | 100 to 1000
C[C@@H]1CN(c2cnc3nc(-c4cc5cn(C)nc5cc4O)cc(Cl)c3c2)CC2(CC2)N1 [Compound 378] | B (100-1000 nM) | > 10000 | 100 to 1000 | 100 to 1000 | 100 to 1000 | 1000 to 10000 | 1000 to 10000 | > 10000
Cn1cc2cc(-c3cc(Cl)c4cc(N5CCNC6(CC6)C5)cnc4n3)cc(F)c2n1 [Compound 382] | C (1000-9999 nM) | > 10000 | 100 to 1000 | 100 to 1000 | 100 to 1000 | 1000 to 10000 | 1000 to 10000 | > 10000
Cc1cn2nc(-c3cc(Cl)c4cc(N5CCNC6(CC6)C5)cnc4n3)cc(C)c2n1 [Compound 383] | C (1000-9999 nM) | 1000 to 10000 | 100 to 1000 | 100 to 1000 | 100 to 1000 | 1000 to 10000 | 1000 to 10000 | 1000 to 10000
Cc1c(O)c(-c2cc(C#N)c3cc(N4C[C@H](C)N[C@@H](C)C4)cnc3n2)cc2cn(C)nc12 [Compound 384, 6-[(3S,5S)-3,5-dimethylpiperazin-1-yl]-2-(6-hydroxy-2,7-dimethylindazol-5-yl)-1,8-naphthyridine-4-carbonitrile] | A (<100 nM) | 1000 to 10000 | < 100 | < 100 | < 100 | 100 to 1000 | 100 to 1000 | 100 to 1000
C[C@H]1CN(c2cnc3nc(-c4cc(F)c5nn(C)cc5c4)ccc3c2Cl)CCN1 [Compound 385, 5-chloro-2-(7-fluoro-2-methylindazol-5-yl)-6-[(3S)-3-methylpiperazin-1-yl]-1,8-naphthyridine] | A (<100 nM) | 1000 to 10000 | < 100 | 100 to 1000 | < 100 | > 10000 | > 10000 | 1000 to 10000
Cn1cc2cc(-c3cc(Cl)c4cc(N5CC[C@@H](N6CCC6)C5)cnc4n3)c(O)cc2n1 [Compound 386] | B (100-1000 nM) | > 10000 | 100 to 1000 | 100 to 1000 | 100 to 1000 | 1000 to 10000 | 1000 to 10000 | 1000 to 10000
